What all share (assay): DTP human tumour cell line panel, 48 h
The subject of experiment [1] is CAKI-1.
Experiment [2] has as its system COLO 205.
For experiment [3], the system named is EKVX.
In experiment [4] the test system is HCT-15.
Experiment [5] relates to HOP-62.
Experiment [6] deals with K562.
Experiment [7] deals with LOX IMVI.
Experiment [8] has as its system M14.
The test system of experiment [9] is MCF7.
Experiment [10] relates to MDA-MB-231.
Experiment [11] concerns NCI-H23.
Experiment [12] relates to NCI/ADR-RES.
The subject of experiment [13] is OVCAR-4.
Experiment [14] relates to OVCAR-8.
The subject of experiment [15] is RXF 393.
Experiment [16] relates to SF-295.
For experiment [17], the system named is SW-620.
The subject of experiment [18] is TK-10.
Experiment [19] deals with UACC-62.

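Tested at 5 concentrations; 48 h exposure; 96-well plates; endpoints linearly interpolated, else capped at highest concentration. The concentration for 50% growth inhibition is given as GI50.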 The source made the active and inactive calls. Rule as the data show it: active = GI50 up to about 1.1 µM and inactive = higher.

In the case of `O=C1Oc2ccccc2C(=O)/C1=C1/C=C(c2ccccc2)SS1`, the GI50 in experiment [1] was 49.2 µM (inactive); in experiment [2], 57.5 µM (inactive); in experiment [3] it was > 100 µM (inactive); in [4], 40 µM; in experiment [5], > 100 µM (inactive); in experiment [6], 42.5 µM (inactive). Further, the GI50 in experiment [7] is 64.7 µM (inactive); in experiment [8], 43.8 µM (inactive); in experiment [9], > 100 µM (inactive); in [10], 80.4 µM (inactive); in experiment [11], > 100 µM (inactive); in experiment [12], 60.1 µM (inactive). For the same molecule, the GI50 was 91 µM (inactive) in [13]; > 100 µM (inactive) in [14]; 63.2 µM (inactive) in [15]; > 100 µM (inactive) in experiment [16]; > 100 µM (inactive) in [17]; > 100 µM (inactive) in experiment [18]. In addition, the GI50 in [19] was 82.8 µM (inactive).
Consider `O=[N+]([O-])C(/C=C(\Cl)[N+](=O)[O-])=C(N1CCOCC1)N1CCOCC1`, for which the GI50 in [1] was 27.4 µM (inactive); in [2] it was 19.8 µM (inactive); in experiment [3], > 100 µM (inactive); in experiment [4], above 100 µM; in experiment [5] it was 20.9 µM (inactive); in experiment [6] it was 18.3 µM (inactive). In addition, the GI50 in experiment [7] is 85.9 µM (inactive); in experiment [8] it was > 100 µM (inactive); in experiment [9], 17.6 µM (inactive); in [10] it was 23.3 µM (inactive); in experiment [11] it was > 100 µM (inactive); in experiment [12] it was > 100 µM (inactive). The GI50 was 25.9 µM (inactive) in experiment [13]; > 100 µM (inactive) in experiment [14]; 31.5 µM (inactive) in [15]; > 100 µM (inactive) in experiment [16]; 47 µM (inactive) in [18]; 85.7 µM (inactive) in [19].
As for `COc1ccccc1N1CCN(CCCN2C(C(=O)c3ccccc3)=C(O)c3c(C)cc(C)nc3S2(=O)=O)CC1`, the GI50 in [1] was 79.6 µM (inactive); in [2] it was 64 µM (inactive); in experiment [3] it was 37 µM (inactive); in experiment [4] it was 56.6 µM; in [5], 77.8 µM (inactive); in experiment [6] it was 56.5 µM (inactive). Further, the GI50 in experiment [7] was 13.4 µM (inactive); in experiment [8], 90.4 µM (inactive); in experiment [9] it was 96.4 µM (inactive); in experiment [10], > 100 µM (inactive); in [11], > 100 µM (inactive); in experiment [12], 50.4 µM (inactive). Besides, the GI50 was 73.3 µM (inactive) in [13]; 64.1 µM (inactive) in [14]; 5.28 µM (inactive) in experiment [15]; 35.7 µM (inactive) in experiment [16]; 89.7 µM (inactive) in [17]; > 100 µM (inactive) in experiment [18]. The GI50 in [19] is > 100 µM (inactive).
As for `N#CCCN(CCNc1ccccc1)C(=O)Nc1ccc(NC(=O)N(CCC#N)CCNc2ccccc2)cc1`, the GI50 in [1] is > 100 µM (inactive); in experiment [2], > 100 µM (inactive); in experiment [3], > 100 µM (inactive); in [4], above 60.3 µM; in experiment [5], > 47 µM (inactive); in experiment [6], > 100 µM (inactive). In addition, the GI50 is 51.1 µM (inactive) in [7]; > 100 µM (inactive) in experiment [8]; > 100 µM (inactive) in experiment [9]; > 100 µM (inactive) in experiment [10]; > 68.4 µM (inactive) in experiment [11]; > 63.8 µM (inactive) in experiment [12]. The GI50 is 24.7 µM (inactive) in [13]; > 73.8 µM (inactive) in experiment [14]; > 45.3 µM (inactive) in [15]; > 74.6 µM (inactive) in [16]; > 100 µM (inactive) in experiment [17]; > 61.4 µM (inactive) in experiment [18]. The GI50 in [19] was > 100 µM (inactive).
In the case of `Cc1ccc(Nc2nc(=S)[nH]c3[nH]ncc23)cc1`, the GI50 in experiment [1] is 58.1 µM (inactive); in experiment [2], 39.5 µM (inactive); in experiment [3] it was > 100 µM (inactive); in experiment [4], 47.6 µM; in [5], > 100 µM (inactive); in experiment [6], 49 µM (inactive). In addition, the GI50 is 37.5 µM (inactive) in experiment [7]; > 100 µM (inactive) in experiment [8]; 37.3 µM (inactive) in experiment [9]; > 100 µM (inactive) in experiment [10]; 59.7 µM (inactive) in experiment [11]; > 100 µM (inactive) in [12]. Further, the GI50 in experiment [13] was 90.4 µM (inactive); in [14], > 100 µM (inactive); in [15], > 100 µM (inactive); in experiment [16], 71.3 µM (inactive); in experiment [17] it was > 100 µM (inactive); in experiment [18] it was 81.1 µM (inactive). Besides, the GI50 in experiment [19] was 37.7 µM (inactive).
Turning to `CSC(=S)OC1C(CO[Si](C)(C)C(C)(C)C)OC2OC(C)(C)OC21` (stereo unspecified), the GI50 is 31.6 µM (inactive) in [1]; 19.2 µM (inactive) in experiment [2]; 20.3 µM (inactive) in [3]; 18.4 µM in [4]; 18.4 µM (inactive) in [5]; 17.1 µM (inactive) in [6]. Further, the GI50 in experiment [7] is 15.7 µM (inactive); in experiment [8] it was 47 µM (inactive); in experiment [9] it was 16.3 µM (inactive); in experiment [10], 17.7 µM (inactive); in experiment [11], 19.9 µM (inactive); in experiment [12], 14.7 µM (inactive). In addition, the GI50 in experiment [13] is 49.4 µM (inactive); in [14], 27.3 µM (inactive); in [15], 20.6 µM (inactive); in experiment [16], 17.4 µM (inactive); in experiment [17], 17.3 µM (inactive); in experiment [18], 20.5 µM (inactive). Further, the GI50 in experiment [19] is 17 µM (inactive).
Take `Clc1ccc(C2ON=C(c3ccccc3)N2C23CC4CC(CC(C4)C2)C3)cc1` (stereo unspecified): the GI50 in [1] is > 10 µM (inactive); in experiment [2] it was > 10 µM (inactive); in experiment [3], > 10 µM (inactive); in [4], above 10 µM; in experiment [5] it was > 10 µM (inactive); in [6], > 10 µM (inactive). Besides, the GI50 in experiment [7], in experiment [8], in [9], in experiment [10], in experiment [11] and in experiment [12] was > 10 µM (inactive) throughout. Also, the GI50 in [13], in experiment [14], in experiment [15], in experiment [16], in experiment [17] and in experiment [18] was > 10 µM (inactive) in each case. Further, in [19], the GI50 is > 10 µM (inactive).
Regarding `COC(=O)c1cc(OS(=O)(=O)C(F)(F)F)c(=O)n2c1CCCC2`, the GI50 is > 100 µM (inactive) in experiment [1]; > 100 µM (inactive) in experiment [2]; > 100 µM (inactive) in experiment [3]; above 100 µM in experiment [4]; > 100 µM (inactive) in [5]; > 100 µM (inactive) in experiment [7]. Further, the GI50 in [8], in [9], in experiment [10], in [11], in [12] and in experiment [13] was > 100 µM (inactive) in each case. For the same molecule, the GI50 in [14] is > 100 µM (inactive); in experiment [15], > 100 µM (inactive); in [16], > 100 µM (inactive); in experiment [17], > 100 µM (inactive); in experiment [18] it was > 100 µM (inactive); in [19] it was 86.3 µM (inactive).
For the molecule `c1ccc(C2C3=C(c4ccccc4CC3)N3c4cc5c(cc4=NC34CCCCC24)Nc2ccccc2N=5)cc1` (stereo unspecified), the GI50 in experiment [1] was > 10 µM (inactive); in [2], > 10 µM (inactive); in [3], > 10 µM (inactive); in [4], 8.39 µM; in experiment [5], > 10 µM (inactive); in experiment [6], 5.27 µM (inactive). The GI50 was 8.04 µM (inactive) in experiment [7]; 6.61 µM (inactive) in experiment [8]; 7.69 µM (inactive) in experiment [9]; 9.79 µM (inactive) in [10]; 9.2 µM (inactive) in [11]; 6.79 µM (inactive) in experiment [12]. In addition, the GI50 in experiment [13] was 5.79 µM (inactive); in experiment [14] it was > 10 µM (inactive); in experiment [15], 6.59 µM (inactive); in experiment [16], > 10 µM (inactive); in experiment [17], 9.64 µM (inactive); in experiment [18], > 10 µM (inactive). Further, in experiment [19], the GI50 was > 10 µM (inactive).
For the molecule `Cc1occc1/C(S)=N\c1ccc(Cl)c(COC(C)(C)C)c1`, the GI50 in experiment [1] is 17.8 µM (inactive); in [2], 15.7 µM (inactive); in experiment [3], 16.3 µM (inactive); in experiment [4] it was 17.2 µM; in experiment [5], 18.3 µM (inactive); in experiment [7], 17.3 µM (inactive). In addition, the GI50 in experiment [8] is 19.1 µM (inactive); in experiment [9], 17.1 µM (inactive); in experiment [10], 17.1 µM (inactive); in experiment [11], 16.4 µM (inactive); in [12] it was 16.1 µM (inactive); in [13] it was 15.3 µM (inactive). In addition, the GI50 in [14] is 17.7 µM (inactive); in experiment [15] it was 14.9 µM (inactive); in [16] it was 14.8 µM (inactive); in experiment [17] it was 17.5 µM (inactive); in [18] it was 19.4 µM (inactive); in [19], 14.6 µM (inactive).
In the case of `Nc1ncnc2c1ncn2C1OC(CO)CC1O` (stereo unspecified), the GI50 in [1] was > 100 µM (inactive); in [2], 93.5 µM (inactive); in [3] it was 40.6 µM (inactive); in [4], 17.6 µM; in [5] it was 29.3 µM (inactive); in experiment [6] it was 7.93 µM (inactive). Also, the GI50 is 21.4 µM (inactive) in experiment [7]; 38.2 µM (inactive) in experiment [8]; 6.08 µM (inactive) in experiment [9]; 17.9 µM (inactive) in [10]; 90.8 µM (inactive) in experiment [11]; 20.3 µM (inactive) in [12]. In addition, the GI50 is > 100 µM (inactive) in [13]; 16.6 µM (inactive) in experiment [14]; > 100 µM (inactive) in experiment [15]; 58.7 µM (inactive) in experiment [16]; 35.1 µM (inactive) in experiment [17]; > 100 µM (inactive) in [18]. The GI50 in experiment [19] was 36.6 µM (inactive).
